Molecular target: T1, PDE1A (Homo sapiens, UniProt P54750)
T1 construct: purchased SignalChem
Experiment: In vitro detection of phosphodiesterase (PDE): PDE1A enzyme activity by fluorescence polarization immunoassay
Format: biochemical
Settings: human-derived enzyme, cAMP or cGMP substrate; read-out: IC50s for PDE1
Experimental: Test 1: In Vitro Detection of Phosphodiesterase (PDE)
the enzyme activity of PDE1A was determined by detecting the production of AMP/GMP by fluorescence polarization immunoassay, wherein AlexaFluor 633 labeled AMP/GMP was used to replace AMP/GMP to bind with the antibody.
Reaction buffer: 10 mM Tris-HCl, pH 7.5, 5 mM magnesium chloride, 0.01% Brij 35, 1 mM DTT and 1% DMSO;
Enzyme substrate: […] cAMP or cGMP (Ca^2+-calmodulin acts as a cofactor of PDE1A)
Detection reagent: Transcreener® AMP2/GMP2 antibody; AMP2/GMP2 AlexaFluor 633 tracer.
Experimental Procedure and Method:
1. Human-derived enzyme (commercially available from SignalChem) to be tested and substrate were diluted with freshly prepared reaction buffer;
2. The enzyme solution (with a concentration of 3 pM) was added to the holes of the microplates;
3. A series of solutions of the compounds in 100% DMSO (with the desired concentrations) were added to the holes containing the enzyme solution by Echo550, and then the microplates were incubated for 10 minutes at room temperature;
4. The substrate solution was added to the holes containing the enzyme and compounds to start the reaction;
5. The microplates were incubated for 1 hour under room temperature and vibration;
6. The detection mixture (tracer and antibody in stop buffer) was added to stop the enzyme reaction, and the microplates were incubated for 90 minutes under vibration;
7. The equipment EnVision (PerkinElmer), Cy5 FP Ex FP 620, Em S-pol 688/P-pol 688, FP mirror D658fp/D688 was used to detect the reaction mixture, and Ex/Em 620/688 was used to detect the fluorescence polarization.
In the Excel table, the enzyme activity corresponding to the FP signal was found on the AMP/GMP standard curve by reference to the DMSO negative control, and then was converted to product concentration (nM). GraphPad Prism was used to analyze and calculate the IC50 values.

IC50 [µM]	SMILES
> 100	CC[C@@]12C=C(C(O)C(F)(F)F)n3c4c(c5ccccc53)CCN(CCC1)[C@H]42 (stereo partly drawn) [Example 1, 1-((4^1S,13aS)-13a-ethyl-2,3,4^1,5,6,13a-hexahydro-1H-indolyl[3,2,1-de]pyridyl[3,2,1-ij][1,5]naphthyridine-12-yl)-2,2,2-trifluoroethanol]
> 100	CC[C@@]12C=C(c3ncc[nH]3)n3c4c(c5ccccc53)CCN(CCC1)[C@H]42 [Example 3, (4^1S,13aS)-13a-ethyl-12-(1H-imidazol-2-yl)-2,3,4^1,5,6,13a-hexahydro-1H-indolo[3,2,1-de]pyrido[3,2,1-ij][1,5]naphthyridine]
20 to 100	CC[C@@]12C=C(c3cnco3)n3c4c(c5ccccc53)CCN(CCC1)[C@H]42 [Example 4, 5-((4^1S,13aS)-13a-ethyl-2,3,4^1,5,6,13a-hexahydro-1H-indolo[3,2,1-de]pyrido[3,2,1-ij][1,5]naphthyridin-12-yl)oxazole]
> 100	CC[C@@]12C=C(/C=C/C(=O)O)n3c4c(c5ccccc53)CCN(CCC1)[C@H]42 [Example 5, (E)-3-((4^1S,13aS)-13a-ethyl-2,3,4^1,5,6,13a-hexahydro-1H-indolo[3,2,1-de]pyrido[3,2,1-ij][1,5]naphthyridin-12-yl)acrylic acid]
1 to 20	CCOC(=O)/C=C/C1=C[C@]2(CC)CCCN3CCc4c(n1c1ccccc41)[C@@H]32 [Example 6, (E)-ethyl-3-((4^1S,13aS)-13a-ethyl-2,3,4^1,5,6,13a-hexahydro-1H-indolo[3,2,1-de]pyrido[3,2,1-ij][1,5]naphthyridin-12-yl)acrylate]
20 to 100	CC[C@@]12C=C(/C=C/C(N)=O)n3c4c(c5ccccc53)CCN(CCC1)[C@H]42 [Example 7, (E)-3-((4^1S,13aS)-13a-ethyl-2,3,4^1,5,6,13a-hexahydro-1H-indolo[3,2,1-de]pyrido[3,2,1-ij][1,5]naphthyridin-12-yl)acrylamide]
20 to 100	CC[C@@]12C=C(c3nccc(C)n3)n3c4c(c5ccccc53)CCN(CCC1)[C@H]42 [Example 8, (4^1S,13aS)-13a-ethyl-12-(4-methylpyrimidin-2-yl)-2,3,4^1,5,6,13a-hexahydro-1H-indolo[3,2,1-de]pyrido[3,2,1-ij][1,5]naphthyridine]
1 to 20	CC[C@@]12C=C(c3ccc(C)nn3)n3c4c(c5ccccc53)CCN(CCC1)[C@H]42 [Example 9, (4^1S,13aS)-13a-ethyl-12-(6-methylpyridazin-3-yl)-2,3,4^1,5,6,13a-hexahydro-1H-indolo[3,2,1-de]pyrido[3,2,1-ij][1,5]naphthyridine]
1 to 20	CC[C@@]12C=C(c3cncc(C)n3)n3c4c(c5ccccc53)CCN(CCC1)[C@H]42 [Example 10, (4^1S,13aS)-13a-ethyl-12-(6-methylpyrazin-2-yl)-2,3,4^1,5,6,13a-hexahydro-1H-indolo[3,2,1-de]pyrido[3,2,1-ij][1,5]naphthyridine]
20 to 100	CC[C@@]12C=C(c3ccccn3)n3c4c(c5ccccc53)CCN(CCC1)[C@H]42 [Example 11, (4^1S,13aS)-13a-ethyl-12-(pyridin-2-yl)-2,3,4^1,5,6,13a-hexahydro-1H-indolo[3,2,1-de]pyrid o[3,2,1-ij][1,5]naphthyridine]
1 to 20	CC[C@@]12C=C(c3cccc(C)n3)n3c4c(c5ccccc53)CCN(CCC1)[C@H]42 [Example 12, (4^1S,13aS)-13a-ethyl-12-(6-methylpyridin-2-yl)-2,3,4^1,5,6,13a-hexahydro-1H-indolo[3,2,1-de]pyrido[3,2,1-ij][1,5]naphthyridine]
20 to 100	CC[C@@]12C=C(c3ncccc3C)n3c4c(c5ccccc53)CCN(CCC1)[C@H]42 [Example 13, (4^1S,13aS)-13a-ethyl-12-(3-methylpyridin-2-yl)-2,3,4^1,5,6,13a-hexahydro-1H-indolo[3,2,1-de]pyrido[3,2,1-ij][1,5]naphthyridine]
1 to 20	CC[C@@]12C=C(c3cnc(C)c(C)n3)n3c4c(c5ccccc53)CCN(CCC1)[C@H]42 [Example 14, (4^1S,13aS)-12-(5,6-dimethylpyrazin-2-yl)-13a-ethyl-2,3,4^1,5,6,13a-hexahydro-1H-indolo[3,2,1-de]pyrido[3,2,1-ij][1,5]naphthyridine]
> 100	CC[C@@]12C=C(c3nnco3)n3c4c(c5ccccc53)CCN(CCC1)[C@H]42 [Example 15, 2-((4^1S,13aS)-13a-ethyl-2,3,4^1,5,6,13a-hexahydro-1H-indolo[3,2,1-de]pyrido[3,2,1-ij][1,5]naphthyridin-12-yl)-1,3,4-oxadiazole]
1 to 20	CC[C@@]12C=C(c3n[nH]c(=O)o3)n3c4c(c5ccccc53)CCN(CCC1)[C@H]42 [Example 16, 5-((4^1S,13aS)-13a-ethyl-2,3,4^1,5,6,13a-hexahydro-1H-indolo[3,2,1-de]pyrido[3,2,1-ij][1,5]naphthyridin-12-yl)-1,3,4-oxadiazol-2(3H)-one]
1 to 20	CC[C@@]12C=C(c3nnc(C)o3)n3c4c(c5ccccc53)CCN(CCC1)[C@H]42 [Example 17, 2-((4^1S,13aS)-13a-ethyl-2,3,4^1,5,6,13a-hexahydro-1H-indolo[3,2,1-de]pyrido[3,2,1-ij][1,5]naphthyridin-12-yl)-5-methyl-1,3,4-oxadiazole]
> 100	CC[C@@]12C=C(c3noc(=O)[nH]3)n3c4c(c5ccccc53)CCN(CCC1)[C@H]42 [Example 18, 3-((4^1S,13aS)-13a-ethyl-2,3,4^1,5,6,13a-hexahydro-1H-indolo[3,2,1-de]pyrido[3,2,1-ij][1,5]naphthyridin-12-yl)-1,2,4-oxadiazol-5 (4H)-one]
> 100	CC[C@@]12C=C(c3nsc(=O)[nH]3)n3c4c(c5ccccc53)CCN(CCC1)[C@H]42 [Example 19, 3-((4^1S,13aS)-13a-ethyl-2,3,4^1,5,6,13a-hexahydro-1H-indolo[3,2,1-de]pyrido[3,2,1-ij][1,5]naphthyridin-12-yl)-1,2,4-thiadiazol-5(4H)-one]
1 to 20	CC[C@@]12C=C(c3noc(C)n3)n3c4c(c5ccccc53)CCN(CCC1)[C@H]42 [Example 20, 3-((4^1S,13aS)-13a-ethyl-2,3,4^1,5,6,13a-hexahydro-1H-indolo[3,2,1-de]pyrido[3,2,1-ij][1,5]naphthyridin-12-yl)-5-methyl-1,2,4-oxadiazole]
> 100	CC[C@@]12C=C(c3noc(C(F)(F)F)n3)n3c4c(c5ccccc53)CCN(CCC1)[C@H]42 [Example 21, 3-((4^1S,13aS)-13a-ethyl-2,3,4^1,5,6,13a-hexahydro-1H-indolo[3,2,1-de]pyrido[3,2,1-ij][1,5]naphthyridin-12-yl)-5-trifluoromethyl-1,2,4-oxadiazole]
20 to 100	CC[C@@]12C=C(c3nc(C(F)(F)F)no3)n3c4c(c5ccccc53)CCN(CCC1)[C@H]42 [Example 22, 5-((4^1S,13aS)-13a-ethyl-2,3,4^1,5,6,13a-hexahydro-1H-indolo[3,2,1-de]pyrido[3,2,1-ij][1,5]naphthyridin-12-yl)-3-trifluoromethyl-1,2,4-oxadiazole]

SMILES	IC50 [µM]
CC[C@@]12C=C(/C(C#N)=N/OC)n3c4c(c5ccccc53)CCN(CCC1)[C@H]42 [Example 2, (4^1S,13aS,Z)-13a-ethyl-N-methoxyl-2,3,4^1,5,6,13a-hexahydro-1H-indolo[3,2,1-de]pyrido[3,2,1-ij][1,5]naphthyridine-12-carbimidoyl cyanide]	1 to 20

From patent publication US10017507B2, “Diaza-benzofluoranthrene compounds” (HARBIN PHARMACEUTICAL GROUP CO., LTD. GENERAL …, priority 2015, dated 2018)
